According to patent US6699384B1, “Compact electrochemical sensor system and method for field testing for metals in saliva or other fluids” (priority 1999, dated 2004):
Several values for one entry are separate records, joined by “and”; a condition that tells them apart may be missing. Equal entries are not always repeated.

Columns and labels:
[1] = Rate of salivation during pilocarpine treatment; format: in vivo, Fisher 344 rats; settings: rat, pilocarpine 1 mg/kg ip
Description: In order to validate the capability of the micro-analytical detection system to quantify Pb in biological specimens, rat studies were conducted using single acute oral doses of Pb-acetate. Adult male Fisher 344 rats were obtained from Charles River Laboratory and ranged from ˜0.230 to 0.260 kg of body weight when used. Groups of rats (3-5 animals/dose) were administered an aqueous solution of Pb-acetate by oral gavage at doses of 0, 20, 50, 100, 200 and 500 mg/kg of body weight. At ˜24 hr post-dosing the rats were anesthetized with an ip injection of ketamine (87 mg/kg):xylazine (13 mg/kg). […]
A PBPK model describing the disposition of Pb in the rat was modified to accommodate a saliva compartment. In general, the PBPK model structure and parameter estimations were as previously described, and the reader is referred to O'Flagherty for a detailed description of the model. […] For simplification the model assumes a constant rate of saliva secretion based on the measured rate of salivation during pilocarpine treatment (0.048 L/day), recognizing that this represents an over estimation of normal saliva flow. […] The fraction of cardiac output to the saliva gland and 1st order absorption rate for intraperitoneal (ip) Pb administration were determined by fitting the data of Mobarak and P'an. […]

[2] = Pb in whole blood and saliva of rats after single acute oral doses of Pb-acetate; format: in vivo, Fisher 344 rats
Source text: Different sample pretreatment procedures for the effective release of the Pb from its binding sites in the biological fluids have been previously reviewed. (Wang, J.: Stripping analysis of trace metals in human body fluids. J. Electroanal. Chem., 139: 225-232 (1982)). It was reported that 0.5 M HCl can effectively release Pb^2+ ion from blood samples. (Nagler, R. M., Baum, B. J., and Fox, P. C.: Effect of X irradiation on the function of rat salivary glands at 3 and 40 days. Rad. Res., 136: 392-396 (1993)). In our work saliva sample was diluted 5 times with acidic solution to a final concentration of 0.5 M HCl. The sample solution was then loaded in sample reservoir and was delivered by the integrated micro-pump. The sample solution flowed across a mercury (Hg)-film working electrode and exited through an outflow groove positioned directly across the Pt auxiliary electrode. Square wave anodic stripping voltametry (SWASV) was utilized for quantitation of Pb in the specimens. For Pb detection, a constant potential of −1.10 V was applied to the glassy carbon Hg-film electrode. When sample solution flowed over the electrode surface, Pb^2+ was reduced and accumulated. After a 3-min accumulation period, the potential of the Hg-film electrode was scanned from −1.10 V to −0.10 V. To eliminate the sample matrix effect for blood and saliva samples, after the accumulation period, a clean solution (0.5 M HCl) was pumped from another reservoir and replaced the sample matrix, then the stripping analysis was performed. After each measurement the Pb was stripped from the electrode surface and the sensor was then available for analysis of the next specimen.
In order to validate the capability of the micro-analytical detection system to quantify Pb in biological specimens, rat studies were conducted using single acute oral doses of Pb-acetate. Adult male Fisher 344 rats were obtained from Charles River Laboratory and ranged from ˜0.230 to 0.260 kg of body weight when used. Groups of rats (3-5 animals/dose) were administered an aqueous solution of Pb-acetate by oral gavage at doses of 0, 20, 50, 100, 200 and 500 mg/kg of body weight. At ˜24 hr post-dosing the rats were anesthetized with an ip injection of ketamine (87 mg/kg):xylazine (13 mg/kg). In addition, each rat was given an ip injection of the cholinergic agonist pilocarpine (1 mg/kg) to induce salivation. Saliva was then collected from each rat, using a glass capillary tube, for approximately 30-min (˜1-2 mL saliva) at which time the rats were exsanguinated by cardiac puncture. Whole blood and saliva specimens were weighed and stored frozen (−80° C.) until the Pb analysis was conducted.
The concentration of Pb in the specimens was determined by inductively coupled plasma/mass spectrometry (ICP-MS). […]

Compound: CC[C@@H]1C(=O)OC[C@@H]1Cc1cncn1C [pilocarpine]
- rate of saliva secretion [1]: 0.048 L/day

Compound: CC(=O)[O-].CC(=O)[O-].[Pb+2] [Pb, Pb-acetate]
- blood Pb concentration ([2]; 500 mg/kg oral dose group, 24 hr post-dosing, saliva response non-linear relative to blood): exceeding 0.7 mg/L
- Pb in rat saliva, Results of ICP/MS ([2]; rat saliva ~24 hr after oral gavage of Pb-acetate, ICP-MS after acid digestion, individual samples 1-3): 99 ppb and 150 ppb and 116 ppb
- Pb in rat saliva, Results of micro Analytical System ([2]; rat saliva ~24 hr after oral gavage of Pb-acetate, SWASV on Hg-film electrode, individual samples 1-3): 80 ppb and 108 ppb and 111 ppb
- saliva Pb as percentage of the concentration in the blood ([2]; rat, oral Pb-acetate, ~24 hr post-dosing): 8.5%-9
